Patent US6355669B1, “Retinoic acid agonists as preventive and therapeutic agents for nephritis” (Eisai Co., Ltd., priority 1997, dated 2002)

Columns and labels:
[1] = system: accelerated Masugi nephritis; assay: Rat model with accelerated Masugi nephritis (proteins excreted in urine for 24 hours); assay type: in vivo, Sprague-Dawley strain rats; details: dose 0.3 mg/kg, oral once every day; compared with the control group; 0.3 mg/kg
Protocol: Sprague-Dawley strain rats were immunized by subcutaneously administering rabbit γ-globulin in a dose of 4 mg/rat along with Freund's complete adjuvant into the bottoms of their both hind legs. On the 5th day after the rats were immunized, 1 ml of anti-rat glomerular basement membrane rabbit serum diluted 6- or 8-fold was administered via tail veins into the animals. On the 8th day, the rats were forced to be orally administered 8 ml sterilized water and then placed in a metabolism cage, and their urine was collected for 24 hours during which the animals were allowed neither food nor water. As the indicator of the model with accelerated Masugi nephritis, the amount of proteins excreted in urine for 24 hours was used.
(§1) The medium was administered into the control group.

[2] = system: anti-rabbit γ-globulin IgG2a antibody titer; assay: Rat model producing antibody (anti-rabbit γ-globulin antibody titer in serum, ELISA); assay type: in vivo, Sprague-Dawley strain rats; details: dose 0.3 mg/kg oral once every day for 14 days; 14th day after immunization
Protocol: Sprague-Dawley strain rats were immunized by subcutaneously administering rabbit γ-globulin in a dose of 4 mg/rat along with Freund's complete adjuvant into the bottoms of their both hind legs. On the 14th day after the rats were immunized, blood was collected from their tail veins and examined for anti-rabbit γ-globulin antibody titer in serum by the ELISA method.
The test compounds A, B, C and D were suspended respectively in 0.5% aqueous methyl cellulose solution and orally administered once every day for 14 days from the day on which the animals were immunized with rabbit γ-globulin. The medium was administered into the control group.

anti-ds DNA antibody = assay: Mouse model with spontaneous onset of SLE: production of anti-ds DNA antibody; assay type: in vivo, female (NZB×NZW) F1 mice; details: 0.03 mg/kg oral; after 16 weeks of administration
Protocol: (§2) In this experiment, female (NZB×NZW) F1 mice were used. Administration of each test compound was initiated at the age of 16 weeks, and blood was collected at predetermined intervals from the orbital venous plexus of the animals under anesthesia with ether and examined for anti-DNA (single-stranded chain: ss, double stranded chain: ds) antibody titer in serum. Further, urine was collected and measured for urine protein.
as §1

anti-ss DNA antibody = assay: Mouse model with spontaneous onset of SLE: production of anti-ss DNA antibody; assay type: in vivo, female (NZB×NZW) F1 mice; details: 0.03 mg/kg oral; after 16 weeks of administration
Protocol: as §2, §1

[3] = system: albuminuria in (NZB×NZW)F1 mice; assay: Mouse model with spontaneous onset of SLE: urine protein / onset of albuminuria; assay type: in vivo, female (NZB×NZW) F1 mice; details: dose 0.03 mg/kg
From the text: as §2
The test compounds A, B and D were suspended in 0.5% aqueous methyl cellulose solution and orally administered daily once into the animals for 6 days/week for 18 weeks. The medium was administered into the control group.
The effect of each compound on the onset of albuminuria after 18 weeks of administration (in 34-week-old animals) is shown in Table 2.

mouse B lymphocytes [4] = details: adding RARα antagonist; Apfel 1992; cited from earlier work
[5] = system: BALB/c mouse spleen cells; assay: In vitro production of antibody (total IgG) in LPS-stimulated mouse spleen cells; assay type: cell-based; details: for Total IgG: LPS 5 μg/ml, 5 days
Protocol: Spleen cells from 7-week-old female BALB/c mouse were cultured at 37° C. in the presence of 5% CO2 for 5 days along with 5 μg/ml lipopolysaccharide (LPS) in RPMI 1640 medium containing 10% fetal bovine serum. After culture, the total amount of IgG in the supernatant was quantified by specific ELISA techniques.

[6] = system: mouse allergic cerebrospinal meningitis; details: Racke et al., J. Immunol., 154, 450-458, 1995; cited from earlier work
rat adjuvant arthritis = details: Brinckerhoff et al., Science 221, 756, 1983; cited from earlier work
[7] = system: anti-collagen antibody titer; details: rat model with collagen arthritis; Kuwabara et al., FEBS Letters 1996; cited from earlier work
human B lymphocytes = details: literature reports (Apfel 1992; Blomhoff 1992; Fahlman 1995); cited from earlier work
mouse B lymphocytes [8] = details: literature reports (Apfel 1992; Blomhoff 1992; Fahlman 1995); cited from earlier work
[9] = after 18 weeks of administration (34-week-old), 8 animals

Compound: Cc1ccc(C)c2oc(-c3ccc(-c4ccc(C(=O)O)cc4)[nH]3)cc12 [Compound A, 4-{2-[5-(4,7-dimethylbenzofuran-2-yl)pyrrolyl]}benzoic acid]
- Degree of Inhibition of Albuminuria (%) [1]: 69.2%
- effect on anti-rabbit γ-globulin IgG2a antibody titer [2]: showed a tendency to inhibit
- inhibition of production of anti-ds DNA antibody (in words) (anti-ds DNA antibody): significant inhibition
- inhibition of production of anti-ss DNA antibody (in words) (anti-ss DNA antibody): significant inhibition
- onset of albuminuria (in words) ([3]; after 18 weeks of administration): inhibited
- Number of animals with Concentration of Urine Protein (mg/ml) <0.3 [3, 9]: 6
- Number of animals with Concentration of Urine Protein (mg/ml) >0.3 [3, 9]: 0
- Number of animals with Concentration of Urine Protein (mg/ml) >1 [3, 9]: 1
- Number of animals with Concentration of Urine Protein (mg/ml) >3 [3, 9]: 1
- Number of animals with Concentration of Urine Protein (mg/ml) >10 [3, 9]: 0

Compound: CCCCCCCOc1cc2c(cc1/C(C)=C/c1ccc(C(=O)O)cc1)C(C)(C)CCS2(=O)=O [Ro-41-5253]
- recovery of the inhibitory action of retinoic acid on differentiation of mouse B lymphocytes (mouse B lymphocytes [4]): recovered almost perfectly
- Total IgG ([5]; Ro-41-5253 20 nM, all-trans retinoic acid 0 nM): 29.2 ng/mL
- Total IgG ([5]; Ro-41-5253 200 nM, all-trans retinoic acid 0 nM): 30.2 ng/mL
- Total IgG ([5]; Ro-41-5253 2000 nM, all-trans retinoic acid 0 nM): 18.0 ng/mL
- recovery of the inhibitory action of all-trans-retinoic acid on antibody production (in words) ([5]; adding 200 nM and 2000 nM Ro-41-5253): completely recovered

Compound: CC1=C(/C=C/C(C)=C/C=C/C(C)=C/C(=O)Nc2ccc(O)cc2)C(C)(C)CCC1
- neural symptoms of mouse allergic cerebrospinal meningitis [6]: ameliorated

Compound: CC1=C(/C=C/C(C)=C/C=C/C(C)=C\C(=O)O)C(C)(C)CCC1 [13-cis-retinoic acid]
- neural symptoms of mouse allergic cerebrospinal meningitis [6]: ameliorated
- secondary inflammations in rat adjuvant arthritis (rat adjuvant arthritis): significantly suppressed

Compound: CC1(C)CCC(C)(C)c2cc(NC(=O)c3ccc(C(=O)O)cc3)ccc21 [Am80]
- production of anti-collagen antibody titer in blood [7]: strongly inhibited

Compound: CC1=C(/C=C/C(C)=C/C=C/C(C)=C/C(=O)O)C(C)(C)CCC1 [All-trans retinoic acid, all-trans-retinoic acid]
- polyclonal division of human B lymphocytes (human B lymphocytes): inhibits
- polyclonal division of mouse B lymphocytes (mouse B lymphocytes [8]): inhibits
- in vitro production of antibody in mice (in words) ([5]; 0.1 and 1 nM all-trans-retinoic acid): inhibited
- Total IgG ([5]; all-trans retinoic acid 0.1 nM with Ro-41-5253 20 nM): 9.8 ng/mL
- Total IgG ([5]; all-trans retinoic acid 0.1 nM with Ro-41-5253 200 nM): 26.4 ng/mL
- Total IgG ([5]; all-trans retinoic acid 0.1 nM with Ro-41-5253 2000 nM): 23.4 ng/mL
- Total IgG ([5]; all-trans retinoic acid 0.1 nM, Ro-41-5253 0 nM): 11.3 ng/mL
- Total IgG ([5]; all-trans retinoic acid 1 nM with Ro-41-5253 20 nM): 6.4 ng/mL
- Total IgG ([5]; all-trans retinoic acid 1 nM with Ro-41-5253 200 nM): 7.2 ng/mL
- Total IgG ([5]; all-trans retinoic acid 1 nM with Ro-41-5253 2000 nM): 21.5 ng/mL
- Total IgG ([5]; all-trans retinoic acid 1 nM, Ro-41-5253 0 nM): 7.3 ng/mL
